# Results from patent US10995068B2, “Synthetic sphingolipid-like molecules, drugs, methods of their synthesis and methods of treatment” (The Regents of the University of California, priority 2015, dated 2021).
# Experiments:
# [1] = Blood cell count of pDKO mice; format: in vivo; conditions: for % lymphocyte / % neutrophil / Red Blood Cells / White Blood Cells / Hematocrit: pDKO mice, at sacrifice; for White Blood Cells: Means ± SEM, n = 4; for Hematocrit: in % (unit assumed)
# Procedure: In vivo studies. Experiments conducted in mice were performed in accordance with the Institutional Animal Care and Use Committee of University of California, Irvine following a power analysis conducted in consultation with the Biostatistics Shared Resource of Chao Family Comprehensive Cancer Center at UCI. Xenografts were produced by injecting 5 million cells subcutaneously in the flank of 10-16 week-old male or female NSG mice. Prostate isografts were produced in the same manner but in male 6-8 wk old C57BL/6 mice. Once tumors reached 100 mm^3, SH-BC-893 was administered by intraperitoneal (i.p.) injection or oral gavage as indicated. Tumor volume was calculated using the formula, volume (mm^3)=length [mm]×(width [mm])^2×0.52; BLI was measured using an IVIS imaging system (Xenogen). To generate pDKO mice on the C57BL6 background, Pten^flox mice (stock No. 0045597) and p53^flox mice (stock No. 008462) were obtained from the Jackson Laboratory and PB-Cre4 mice (strain #01XF5) were obtained from the NCI-Frederick Mouse Repository. Age-matched cohorts of pDKO males were generated by in vitro fertilization executed with the assistance of the Transgenic Mouse Facility at UC Irvine. Treatment was begun at 6-7 wks of age. […] Tumor samples were processed and imaged by the Pathology Research Services Core Facility at UC Irvine. Blood chemistry was analyzed by IDEXX BioResearch and complete blood counts were performed using a Hemavet hematology system.
# [2] = system: non-transformed murine OP9 bone marrow stromal cells and primary murine embryonic fibroblasts (MEFs); assay: Sensitivity of non-transformed cells versus cancer cell lines; format: cell-based; conditions: OP9 and primary MEFs versus DLD-1, LS180, SW48, SW480, SW620, MDA-MB-231, PANC-1
# Procedure: Consistent with the bioenergetic mechanism described supra, cells with a higher anabolic rate should be more sensitive to sphingolipid-like compounds. In exemplary experiments testing this mechanism, murine FL5.12 cells with different anabolic rates were treated with SH-BC-893. The anabolic rate of FL5.12 cells can be titrated by modulating the levels of their required growth factor, IL-3; comparing FL5.12 cells grown in high and low IL-3 allows the impact of elevated growth factor signaling and anabolism to be evaluated in a constant genetic background. High concentrations of IL-3 drive aerobic glycolysis and a rapid doubling time (12 h). Reducing IL-3 levels slows proliferation and increases oxidative phosphorylation without compromising cell viability (FIGS. 53A and 53B). […] Many of these cancer cell lines carry activating mutations in Ras. […]
# Cell culture and reagents. […] Cell viability was measured by vital dye exclusion using either propidium iodide or DAPI at 1 μg/ml. Analysis of cell surface 4F2hc levels with PE-conjugated anti-CD98 was restricted to viable cells as determined by DAPI exclusion. Anchorage-independent growth of SW620 cells was measured in DMEM-10 containing 0.35% low melt agarose with a 0.5% agarose bottom layer. […]
smiles,measurement,setting,value
"CCCCCCCCc1ccc([C@H]2CCN[C@@H]2CO)cc1.Cl [Compound 5, (2S,3R)-2-(hydroxymethyl)-3-(4-octylphenyl)Pyrrolidinium chloride]",complete blood counts (in words),[1]; mice treated with 120 mg/kg for 11 weeks,normal complete blood counts
same,% lymphocyte,[1]; 60 mg/kg,77 ± 4%
same,% neutrophil,[1]; 60 mg/kg,14 ± 3%
same,Red Blood Cells,[1]; 60 mg/kg,8 ± 1 M/μL
same,White Blood Cells,[1]; 60 mg/kg,5 ± 1 10^3 cells/μL
same,Hematocrit,[1]; 60 mg/kg,32 ± 5
same,% lymphocyte,[1]; 120 mg/kg,73 ± 5%
same,% neutrophil,[1]; 120 mg/kg,19 ± 5%
same,Red Blood Cells,[1]; 120 mg/kg,9 ± 1 M/μL
same,White Blood Cells,[1]; 120 mg/kg,8 ± 1 10^3 cells/μL
same,Hematocrit,[1]; 120 mg/kg,41 ± 3
same,sensitivity compared with human cancer cell lines,[2],less sensitive
